Data: ChEMBL document CHEMBL1138985, “Discovery of potent, selective, and orally bioavailable pyridone-based dipeptidyl peptidase-4 inhibitors” (Bioorg Med Chem Lett, 2006)

How the values were obtained:
Dipeptidyl peptidase 8 = Dipeptidyl peptidase 8 (Homo sapiens, UniProt Q6V1X1)
Mus musculus [1] = assay: Reduction of glucose excursion at 1 mg/kg, po in mouse by Oral Glucose Tolerance Test; type: functional; set-up: scale not given: the % may be the effect or the level left
[2] = Half life in dog at 1 mg/kg, iv or 2 mg/kg, po; type: ADME, organism-based, Canis lupus familiaris; details: in vivo
[3] = Half life in rat at 1 mg/kg, iv or 2 mg/kg, po; type: ADME, organism-based; details: in vivo
[4] = Bioavailability in dog at 1 mg/kg, iv or 2 mg/kg, po; type: ADME, organism-based, Canis lupus familiaris; details: in vivo
[5] = Plasma clearance in dog at 1 mg/kg, iv or 2 mg/kg, po; type: ADME, organism-based, Canis lupus familiaris
[6] = Bioavailability in rat at 1 mg/kg, iv or 2 mg/kg, po; type: ADME, organism-based; details: in vivo
[7] = Bioavailability in rhesus monkey at 1 mg/kg, iv or 2 mg/kg, po; type: ADME, organism-based, Macaca mulatta; details: in vivo
[8] = Plasma clearance in rhesus monkey at 1 mg/kg, iv or 2 mg/kg, po; type: ADME, organism-based, Macaca mulatta
Dipeptidyl peptidase 9 = Dipeptidyl peptidase 9 (Homo sapiens, UniProt Q86TI2)
[9] = Half life in rhesus monkey at 1 mg/kg, iv or 2 mg/kg, po; type: ADME, organism-based, Macaca mulatta; details: in vivo
Mus musculus [10] = assay: Reduction of glucose excursion at 10 mg/kg, po in mouse by Oral Glucose Tolerance Test; type: functional; set-up: scale not given: the % may be the effect or the level left
[11] = Plasma clearance in rat at 1 mg/kg, iv or 2 mg/kg, po; type: ADME, organism-based
Dipeptidyl peptidase 2 = Dipeptidyl peptidase 2 (Homo sapiens, UniProt Q9UHL4); assay: Inhibition of QPP
[12] = biological target: Voltage-gated inwardly rectifying potassium channel KCNH2 (Homo sapiens, UniProt Q12809); assay: Binding to human ERG potassium channel
Sequence of Voltage-gated inwardly rectifying potassium channel KCNH2 (Q12809 whole entry): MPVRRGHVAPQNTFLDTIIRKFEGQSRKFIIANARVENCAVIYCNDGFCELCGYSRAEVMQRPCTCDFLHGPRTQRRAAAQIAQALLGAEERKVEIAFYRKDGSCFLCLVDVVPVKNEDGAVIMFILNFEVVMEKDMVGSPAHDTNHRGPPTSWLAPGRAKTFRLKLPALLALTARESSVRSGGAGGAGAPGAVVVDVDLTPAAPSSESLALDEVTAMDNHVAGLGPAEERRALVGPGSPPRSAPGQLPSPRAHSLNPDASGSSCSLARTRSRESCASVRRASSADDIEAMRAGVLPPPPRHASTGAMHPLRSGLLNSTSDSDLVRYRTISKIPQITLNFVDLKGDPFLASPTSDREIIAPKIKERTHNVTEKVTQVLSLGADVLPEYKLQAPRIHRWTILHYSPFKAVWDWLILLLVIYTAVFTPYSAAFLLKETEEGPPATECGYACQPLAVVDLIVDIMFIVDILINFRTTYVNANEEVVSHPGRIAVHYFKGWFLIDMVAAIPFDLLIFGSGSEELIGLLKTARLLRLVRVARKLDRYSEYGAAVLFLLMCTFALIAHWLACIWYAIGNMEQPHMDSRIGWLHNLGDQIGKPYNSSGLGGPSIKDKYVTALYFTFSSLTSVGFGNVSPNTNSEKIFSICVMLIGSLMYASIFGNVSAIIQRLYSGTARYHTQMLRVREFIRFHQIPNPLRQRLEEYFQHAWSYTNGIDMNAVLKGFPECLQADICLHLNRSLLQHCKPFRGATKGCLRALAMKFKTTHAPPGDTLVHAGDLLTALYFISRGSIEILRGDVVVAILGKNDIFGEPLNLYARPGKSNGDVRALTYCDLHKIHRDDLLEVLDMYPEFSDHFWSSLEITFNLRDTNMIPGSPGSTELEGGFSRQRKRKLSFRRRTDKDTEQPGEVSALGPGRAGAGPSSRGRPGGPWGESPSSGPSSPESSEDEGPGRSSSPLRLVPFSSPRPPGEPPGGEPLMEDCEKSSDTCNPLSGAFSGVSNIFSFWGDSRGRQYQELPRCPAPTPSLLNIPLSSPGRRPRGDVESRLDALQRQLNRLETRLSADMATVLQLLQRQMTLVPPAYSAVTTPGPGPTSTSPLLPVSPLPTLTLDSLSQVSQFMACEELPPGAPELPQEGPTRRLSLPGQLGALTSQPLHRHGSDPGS

Sequence of Dipeptidyl peptidase 9 (Q86TI2 whole entry): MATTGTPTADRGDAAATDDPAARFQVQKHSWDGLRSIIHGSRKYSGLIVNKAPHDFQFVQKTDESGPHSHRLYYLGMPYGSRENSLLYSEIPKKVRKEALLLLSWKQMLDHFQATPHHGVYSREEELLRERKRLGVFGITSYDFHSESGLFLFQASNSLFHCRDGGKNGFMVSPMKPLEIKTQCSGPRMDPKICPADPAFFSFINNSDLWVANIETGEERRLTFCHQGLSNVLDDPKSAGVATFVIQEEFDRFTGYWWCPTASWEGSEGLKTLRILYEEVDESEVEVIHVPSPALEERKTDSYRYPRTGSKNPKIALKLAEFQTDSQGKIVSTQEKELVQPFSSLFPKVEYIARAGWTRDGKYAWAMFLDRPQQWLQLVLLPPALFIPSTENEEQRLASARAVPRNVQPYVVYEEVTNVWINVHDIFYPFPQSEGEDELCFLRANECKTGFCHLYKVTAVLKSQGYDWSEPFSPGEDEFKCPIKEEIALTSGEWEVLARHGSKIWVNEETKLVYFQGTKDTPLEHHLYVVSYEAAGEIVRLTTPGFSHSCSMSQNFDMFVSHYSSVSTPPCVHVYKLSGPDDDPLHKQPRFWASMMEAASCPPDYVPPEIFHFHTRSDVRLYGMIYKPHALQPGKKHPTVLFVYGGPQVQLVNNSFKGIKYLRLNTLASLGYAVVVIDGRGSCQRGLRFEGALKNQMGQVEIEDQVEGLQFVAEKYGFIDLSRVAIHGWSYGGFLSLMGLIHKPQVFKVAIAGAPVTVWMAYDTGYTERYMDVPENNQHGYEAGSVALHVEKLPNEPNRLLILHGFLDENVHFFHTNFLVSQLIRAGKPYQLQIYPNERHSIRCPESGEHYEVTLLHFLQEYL
Sequence of Dipeptidyl peptidase 8 (Q6V1X1 whole entry): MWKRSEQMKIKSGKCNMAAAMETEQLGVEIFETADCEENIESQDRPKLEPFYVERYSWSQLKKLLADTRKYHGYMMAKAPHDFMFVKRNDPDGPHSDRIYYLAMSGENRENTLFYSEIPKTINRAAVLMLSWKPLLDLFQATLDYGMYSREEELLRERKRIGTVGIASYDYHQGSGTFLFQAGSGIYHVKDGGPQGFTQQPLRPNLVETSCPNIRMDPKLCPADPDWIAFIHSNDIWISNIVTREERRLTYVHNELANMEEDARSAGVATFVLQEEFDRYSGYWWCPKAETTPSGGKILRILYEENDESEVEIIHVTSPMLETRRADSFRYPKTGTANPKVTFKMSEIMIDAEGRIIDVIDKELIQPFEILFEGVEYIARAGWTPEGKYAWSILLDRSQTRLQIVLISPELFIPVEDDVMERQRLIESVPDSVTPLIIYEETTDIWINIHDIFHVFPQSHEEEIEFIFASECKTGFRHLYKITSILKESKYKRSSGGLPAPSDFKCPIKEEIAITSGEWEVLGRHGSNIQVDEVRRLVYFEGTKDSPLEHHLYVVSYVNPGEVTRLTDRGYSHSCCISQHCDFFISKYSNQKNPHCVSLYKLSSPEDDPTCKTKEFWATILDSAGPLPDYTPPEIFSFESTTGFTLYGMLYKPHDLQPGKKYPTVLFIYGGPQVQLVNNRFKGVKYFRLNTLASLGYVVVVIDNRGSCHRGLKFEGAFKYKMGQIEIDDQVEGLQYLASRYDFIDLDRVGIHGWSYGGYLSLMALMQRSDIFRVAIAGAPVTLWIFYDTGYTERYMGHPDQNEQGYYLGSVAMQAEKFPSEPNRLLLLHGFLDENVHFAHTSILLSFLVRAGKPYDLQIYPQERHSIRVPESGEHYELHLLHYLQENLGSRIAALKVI

Row | SMILES | IC50 (Dipeptidyl peptidase 8) [µM] | IC50 (Dipeptidyl peptidase 9) [µM] | further results
1 | CCOC(=O)Nc1c(-c2ccc([C@H](C)[C@H](N)C(=O)N3CC[C@H](F)C3)cc2)cn(C)c(=O)c1F | > 100 | – | –
2 | C[C@@H](c1ccc(-c2ccc(=O)n(C)c2)cc1)[C@H](N)C(=O)N1CC[C@H](F)C1.O=C(O)C(F)(F)F | > 100 | > 100 | Activity (Mus musculus [1]): 33%; half-life [2]: 3.8 h; half-life [3]: 1.4 h; bioavailability [4]: 95%; clearance [5]: 4.7 mL/min/kg; bioavailability [6]: 34%; bioavailability [7]: 50%; clearance [8]: 6.7 mL/min/kg; half-life [9]: 3.9 h; Activity (Mus musculus [10]): 56%; clearance [11]: 7.7 mL/min/kg
3 | CCOC(=O)Cn1cc(-c2ccc([C@H](C)[C@H](N)C(=O)N3CC[C@H](F)C3)cc2)ccc1=O | > 100 | > 100 | –
4 | CCOC(=O)C(F)(F)n1cc(-c2ccc([C@H](C)[C@H](N)C(=O)N3CC[C@H](F)C3)cc2)ccc1=O | > 100 | > 100 | –
5 | C[C@@H](c1ccc(-c2cc(F)c(=O)n(C)c2)cc1)[C@H](N)C(=O)N1CC[C@H](F)C1 | – | > 100 | –
6 | C[C@@H](c1ccc(-c2ccc(=O)n(-c3ccc(F)cc3)c2)cc1)[C@H](N)C(=O)N1CC[C@H](F)C1 | > 100 | > 100 | –
7 | C[C@@H](c1ccc(-c2cn(C)c(=O)cc2F)cc1)[C@H](N)C(=O)N1CC[C@H](F)C1 | > 100 | > 100 | –
8 | CCn1cc(-c2ccc([C@H](C)[C@H](N)C(=O)N3CC[C@H](F)C3)cc2)ccc1=O | > 100 | > 100 | –
9 | Cc1c(-c2ccc([C@H](C)[C@H](N)C(=O)N3CC[C@H](F)C3)cc2)ccc(=O)n1C | > 100 | > 100 | –
10 | C[C@@H](c1ccc(-c2cn(C)c(=O)c(Cl)c2F)cc1)[C@H](N)C(=O)N1CC[C@H](F)C1 | > 100 | > 100 | –
11 | C[C@@H](c1ccc(-c2ccc(O)nc2)cc1)[C@H](N)C(=O)N1CC[C@H](F)C1.O=C(O)C(F)(F)F | > 100 | > 100 | half-life [3]: 1.9 h; IC50 [12]: 8.3 µM; bioavailability [6]: 10%; clearance [11]: 35.8 mL/min/kg
12 | C[C@@H](c1ccc(-c2ccc(=O)n(C)c2)cc1)[C@H](N)C(=O)N1CCC(F)CC1 | > 100 | > 100 | –

The next lines start with results.

Row | IC50 (Dipeptidyl peptidase 8) [µM] | IC50 (Dipeptidyl peptidase 9) [µM] | SMILES | further results
13 | > 100 | > 100 | C[C@@H](c1ccc(-c2ccc(=O)n(C)c2)cc1)[C@H](N)C(=O)N1CCC(F)(F)C1 | –
14 | > 100 | > 100 | C[C@@H](c1ccc(-c2ccc(=O)n(CC3CC3)c2)cc1)[C@H](N)C(=O)N1CC[C@H](F)C1 | –
15 | > 100 | > 100 | C[C@@H](c1ccc(-c2cn(C)c(=O)cc2CO)cc1)[C@H](N)C(=O)N1CC[C@H](F)C1.O=C(O)C(F)(F)F | half-life [3]: 2.6 h; IC50 (Dipeptidyl peptidase 2): > 100 µM; bioavailability [6]: 3%; clearance [11]: 68.1 mL/min/kg
16 | > 100 | > 100 | C[C@@H](c1ccc(-c2ccc(=O)n(C)c2)cc1)[C@H](N)C(=O)N1CCSC1 | –
17 | > 100 | > 100 | Cc1cc(=O)n(C)cc1-c1ccc([C@H](C)[C@H](N)C(=O)N2CC[C@H](F)C2)cc1 | –
18 | > 100 | > 100 | C[C@@H](c1ccc(-c2ccc(=O)n(C)c2F)cc1)[C@H](N)C(=O)N1CC[C@H](F)C1.O=C(O)C(F)(F)F | half-life [3]: 1.1 h; bioavailability [6]: 61%; clearance [11]: 11.2 mL/min/kg
19 | > 100 | > 100 | C[C@@H](c1ccc(-c2cc(Br)c(=O)n(C)c2)cc1)[C@H](N)C(=O)N1CC[C@H](F)C1 | –
20 | > 100 | > 100 | C[C@@H](c1ccc(-c2ccc(=O)n(C)c2)cc1)[C@H](N)C(=O)N1CCCC1 | –
21 | > 100 | > 100 | Cc1c(-c2ccc([C@H](C)[C@H](N)C(=O)N3CC[C@H](F)C3)cc2)cc(Br)c(=O)n1C | –
22 | > 100 | > 100 | C[C@@H](c1ccc(-c2ccc(=O)n(C)c2)cc1)[C@H](N)C(=O)N1CC(F)C1 | –
23 | > 100 | > 100 | COc1cc(=O)n(C)cc1-c1ccc([C@H](C)[C@H](N)C(=O)N2CC[C@H](F)C2)cc1 | –
